# According to patent US20240270741A1 (Cogent Biosciences, Inc., priority 2023, published 2024):
# Molecular target: FGFR2 (Homo sapiens, UniProt P21802)
# Experiment: FGFR wild type enzyme assay (HTRF KinEASE-TK), FGFR2
# Conditions: Enz FGFR2 (nM), FGFR2 wild type enzyme
# FGFR2, sequence (P21802 399-821 limits assumed): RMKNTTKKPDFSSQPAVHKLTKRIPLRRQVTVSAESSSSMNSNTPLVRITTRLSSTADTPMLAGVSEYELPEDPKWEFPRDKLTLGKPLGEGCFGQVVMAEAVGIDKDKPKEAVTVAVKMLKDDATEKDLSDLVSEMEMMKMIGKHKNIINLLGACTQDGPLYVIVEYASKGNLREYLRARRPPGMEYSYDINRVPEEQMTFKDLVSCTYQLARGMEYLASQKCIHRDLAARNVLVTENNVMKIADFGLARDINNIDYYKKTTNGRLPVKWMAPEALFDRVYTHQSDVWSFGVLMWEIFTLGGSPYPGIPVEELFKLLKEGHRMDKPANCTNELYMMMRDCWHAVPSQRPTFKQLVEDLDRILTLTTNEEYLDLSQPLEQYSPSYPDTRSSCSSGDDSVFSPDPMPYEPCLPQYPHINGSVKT
row,Structure (SMILES),IC50 [nM]
1,"Cc1nn([C@H]2CC[C@@H](N(C)C)CC2)c(C)c1-c1cc(Sc2ncccc2F)c2c(C#N)cnn2c1 [Example 304, 6-(1-((1s,4s)-4-(dimethylamino)cyclohex-yl)-3,5-dimethyl-1H-pyrazol-4-yl)-4-((3-fluoropyridin-2-yl)thio)pyrazolo[1,5-a]pryidine-3-carbonitrile]",3.5
2,"Cc1nn(C2CCN(C)CC2)c(C)c1-c1cc(Sc2ccccc2C#N)c2c(C#N)cnn2c1 [Example 305, 4-((2-cyanophenyl)thio)-6-(3,5-dimethyl-1-(1-methylpiperidin-4-yl)-1H-pyrazol-4-yl)pyrazolo[1,5-a]pyridine-3-carbonitrile]",5
3,"CC(=O)N1CCC(n2ncc(-c3cc(Sc4ccc(F)cn4)c4c(C#N)cnn4c3)c2C)CC1 [Example 306, 6-(1-(1-acetylpiperidin-4-yl)-5-methyl-1H-pyrazol-4-yl)-4-((5-fluoropyridin-2-yl)thio)pyrazolo[1,5-a]pyridine-3-carbonitrile]",6
4,"Cc1c(-c2cc(Sc3ccc(F)cn3)c3c(C#N)cnn3c2)cnn1[C@H]1CCCNC1 [Example 307, (S)-4-((5-fluoropyridin-2-yl)thio)-6-(5-methyl-1-(piperidin-3-yl)-1H-pyrazol-4-yl)pyrazolo[1,5-a]pyridine-3-carbonitrile]",5
5,"CC(=O)N1CCC[C@H](n2ncc(-c3cc(Sc4ccc(F)cn4)c4c(C#N)cnn4c3)c2C)C1 [Example 308, (S)-6-(1-(1-acetylpiperidin-3-yl)-5-methyl-1H-pyrazol-4-yl)-4-((5-fluoropyridin-2-yl)thio)pyrazolo[1,5-a]pyridine-3-carbonitrile]",7
6,"Cc1c(-c2cc(Sc3ccc(F)cn3)c3c(C#N)cnn3c2)cnn1[C@H]1C[C@H]2CC[C@@H](C1)N2C(=O)CO [Example 309, 4-((5-fluoropyridin-2-yl)thio)-6-(1-((1R,3r,5S)-8-(2-hydroxyacetyl)-8-azabicyclo[3.2.1]octan-3-yl)-5-methyl-1H-pyrazol-4-yl)pyrazolo[1,5-a]pyridine-3-carbonitrile]",6
7,"Cc1c(-c2cc(Sc3ccc(F)cn3)c3c(C#N)cnn3c2)cnn1[C@@H]1C[C@H]2CC[C@@H](C1)N2C(=O)CO [Example 310, 4-((5-fluoropyridin-2-y)thio)-6-(1-((1R,3s,5S)-8-(2-hydroxyacetyl)-8-azabicyclo[3.2.1]octan-3-yl)-5-methyl-1H-pyrazol-4-yl)pyrazolo[1,5-a]pyridine-3-carobnitrile]",8
8,"CN[C@H]1CC[C@@H](n2ncc(-c3cc(Sc4ccccn4)c4c(C#N)cnn4c3)c2C)CC1 [Example 311, 6-(5-methyl-1-((1s,4s)-4-(methylamino)cyclohexyl)-1H-pyrazol-4-yl)-4-(pyridin-2-ylthio)pyrazolo[1,5-a]pyridine-3-carbonitrile]",2
9,"Cc1nn([C@H]2CC[C@@H](O)CC2)cc1-c1cc(Sc2ncccc2F)c2c(C#N)cnn2c1 [Example 312, 4-((3-fluoropyridin-2-yl)thio)-6-(1-((1s,4s)-4-hydroxycyclohexyl)-3-methyl-1H-pyrazol-4-yl)pyrazolo[1,5-a]pyridine-3-carbonitrile]",1.5
10,"CC(=O)N[C@H]1CC[C@@H](n2cc(-c3cc(Sc4ccccn4)c4c(C#N)cnn4c3)cn2)CC1 [Example 314, N-((1s,4s)-4-(4-(3-cyano-4-(pyridin-2-ylthio)pyrazolo[1,5-a]pyridin-6-yl)-1H-pyrazol-1-yl)cyclohexyl)acetamide]",2
11,"CC(=O)N[C@H]1CC[C@@H](n2cc(-c3cc(Sc4ncccc4C)c4c(C#N)cnn4c3)cn2)CC1 [Example 315, N-((1s,4s)-4-(4-(3-cyano-4-((3-methylpyridin-2-yl)thio)pyrazolo[1,5-a]pyridin-6-yl)-1H-pyrazol-1-yl)cyclohexyl)acetamide]",3
12,"CN[C@]1(C)CC[C@H](n2ncc(-c3cc(Sc4ccc(F)cc4C#N)c4c(C#N)cnn4c3)c2C)CC1 [Example 326, 4-((2-cyano-4-fluoorphenyl)thio)-6-(5-methyl-1-((1s,4s)-4-methyl-4-(methylamino)cyclohxyl)-1H-pyrazol-4-eyl)pyrazolo[1,5-a]pyridine-3-carbonitrile]",1
13,"Cc1c(-c2cc(Sc3ncc(F)cc3F)c3c(C#N)cnn3c2)cnn1C1CCN(C)CC1 [Example 328, 4-((3,5-difluoropyridin-2-yl)thio)-6-(5-methyl-1-(1-methylpiperidin-4-yl)-1H-pyrazol-4-yl)pyrazolo[1,5-a]pyridine-3-carbonitrile]",3
14,"Cc1c(-c2cc(Sc3ccc(F)cn3)c3c(C#N)cnn3c2)cnn1C1CCN(C)CC1 [Example 329, 4-((5-fluoropyridin-2-yl)thio)-6-(5-methyl-1-(1-methylpiperidin-4-yl)-1H-pyrazol-4-yl)pyrazolo[1,5-a]pyridine-3-carbonitrile]",5
15,"Cc1c(-c2cc(Sc3ccc(F)cc3C#N)c3c(C#N)cnn3c2)cnn1C1CCN(C(C)C)CC1 [Example 330, 4-((2-cyano-4-fluorophenyl)thio)-6-(1-(1-isopropylpiperidin-4-yl)-5-methyl-1H-pyrazol-4-yl)pyrazolo[1,5-a]pyridine-3-carbonitrile]",1
16,"Cc1c(-c2cc(Sc3ccc(F)cc3C#N)c3c(C#N)cnn3c2)cnn1C1CCN(C[C@@H](C)O)CC1 [Example 331, (R)-4-((2-cyano-4-fluorophenyl)thio)-6-(1-(1-(2-hydroxypropyl)piperidin-4-yl)-5-methyl-1H-pyrazol-4-yl)pyrazolo[1,5-a]pyridine-3-carbonitrile]",1
17,"Cc1c(-c2cc(Sc3ccc(F)cc3C#N)c3c(C#N)cnn3c2)cnn1[C@H]1CCCN(C(=O)CO)C1 [Example 332, (S)-4-((2-cyano-4-fluorophenyl)thio)-6-(1-(1-(2-hydroxyacetyl)piperidin-3-yl)-5-methyl-1H-pyrazol-4-yl)pyrazolo[1,5-a]pyridine-3-carbonitrile]",1

# The remaining molecules from weak to strong by IC50, led by results:
row,IC50 [nM],Structure (SMILES)
1,1,"Cc1nn([C@H]2CC[C@@H](O)CC2)cc1-c1cc(Sc2ccccc2C#N)c2c(C#N)cnn2c1 [Example 313, 4-((2-cyanophenyl)thio)-6-(1-((1s,4s)-4-hydroxycyclohexyl)-3-methyl-1H-pyrazol-4-yl)pyrazolo[1,5-a]pyridine-3-carbonitrile]"
2,1,"CC(=O)N1CC[C@]2(CC[C@@H](n3ncc(-c4cc(Sc5ccccc5C#N)c5c(C#N)cnn5c4)c3C)CC2)C1 [Example 321, 6-(1-((5r,8r)-2-acetyl-2-azaspiro[4.5]decan-8-yl)-5-methyl-1H-pyrazol-4-yl)-4-((2-cyanophenyl)thio)pyrazolo [1,5-a]pyridine-3-carbonitrile]"
3,1,"Cc1c(-c2cc(Sc3ccc(F)cc3C#N)c3c(C#N)cnn3c2)cnn1[C@H]1CC[C@](C)(O)CC1 [Example 323, 4-((2-cyano-4-fluorophenyl)thio)-6-(1-((1r,4r)-4-hydroxy-4-methylcyclohexyl)-5-methyl-1H-pyrazol-4-yl)pyrazolo[1,5-a]pyridine-3-carbonitrile]"
4,1,"Cc1c(-c2cc(Sc3ccc(F)cc3C#N)c3c(C#N)cnn3c2)cnn1[C@H]1CC[C@@](C)(O)CC1 [Example 324, 4-((2-cyano-4-fluorophenyl)thio)-6-(1-((1s,4s)-4-hydroxy-4-methylcyclohexyl)-5-methyl-1H-pyrazol-4-y)pyrazolo[1,5-a]pyridine-3-carbonitrile]"
5,0.6,"CC(=O)N1CC[C@]2(CC[C@H](n3ncc(-c4cc(Sc5ccccc5C#N)c5c(C#N)cnn5c4)c3C)CC2)C1 [Example 322, 6-(1-((5s,8s)-2-acetyl-2-azaspiro[4.5]decan-8-yl)-5-methyl-1H-pyrazol-4-yl)-4-((2-cyanophenyl)thio)pyrazolo [1,5-a]pyridine-3-carbonitrile]"
6,0.5,"Cc1c(-c2cc(Sc3ccc(F)cc3C#N)c3c(C#N)cnn3c2)cnn1[C@H]1CC[C@@H](N(C)CCO)CC1 [Example 317, 4-((2-cyano-4-fluorophenyl)thio)-6-(1-((1s,4s)-4-((2-hydroxyethyl)(methyl)ami-no)cyclohexyl)-5-methyl-1H-pyrazol-4-yl)pyrazolo[1,5-a]pyridine-3-carbonitrile]"
7,0.5,"Cc1c(-c2cc(Sc3ccc(F)cc3C#N)c3c(C#N)cnn3c2)cnn1[C@H]1CC[C@@](C)(N)CC1 [Example 325, 6-(1-((1s,4s)-4-amino-4-methylcyclohexyl)-5-methyl-1H-pyrazol-4-yl)-4-((2-cyano-4-fluorophenyl)thio)pyrazolo [1,5-a]pyridine-3-carbonitrile]"
8,0.5,"Cc1c(-c2cc(Sc3ccc(F)cc3C#N)c3c(C#N)cnn3c2)cnn1[C@H]1CC[C@@](C)(N(C)C)CC1 [Example 327, 4-((2-cyano-4-fluorophenyl)thio)-6-(1-((1s,4s)-4-(dimethylamino)-4-methylcyclohexyl)-5-methyl-1H-pyrazol-4-yl)pyrazolo[1,5-a]pyridine-3-carbonitrile]"
9,0.4,"CC(=O)N[C@H]1CC[C@@H](n2cc(-c3cc(Sc4ccccc4C#N)c4c(C#N)cnn4c3)cn2)CC1 [Example 316, N-((1s,4s)-4-(4-(3-cyano-4-((2-cyanophenyl)thio)pyrazolo [1,5-a]pyridin-6-yl)-1H-pyrazol-1-yl)cyclohexyl)acetamide]"
10,0.4,"Cc1c(-c2cc(Sc3ccccc3C#N)c3c(C#N)cnn3c2)cnn1[C@H]1CC[C@@H](N(C)CCO)CC1 [Example 318, 4-((2-cyanophenyl)thio)-6-(1-((1s,4s)-4-((2-hydroxyethyl)(methyl)ami-no)cyclohexyl)-5-methyl-1H-pyrazol-4-yl)pyrazolo[1,5-a]pyridine-3-carbonitrile]"
11,0.3,"CN[C@]1(C)CC[C@H](n2ncc(-c3cc(Sc4ccccc4C#N)c4c(C#N)cnn4c3)c2C)CC1 [Example 319, 4-((2-cyanophenyl)thio)-6-(5-methyl-1-((1s,4s)-4-methyl-4-(methylamino)cyclohexyl)-1H-pyrazol-4-yl)pyrazolo[1,5-a]pyridine-3-carbonitrile]"
12,0.3,"CN[C@]1(C)CC[C@@H](n2ncc(-c3cc(Sc4ccccc4C#N)c4c(C#N)cnn4c3)c2C)CC1 [Example 320, 4-((2-cyanophenyl)thio)-6-(5-methyl-1-((1r,4r)-4-methyl-4-(methylamino)cyclohexyl)-1H-pyrazol-4-yl)pyrazolo[1,5-a]pyridine-3-carbonitirle]"
